Laboratory results: patent US9308210B2, “Method for modulating canonical Wnt pathway using folate and inositol” (University of South Florida, priority 2009, dated 2016)
Several values for one entry are separate records, joined by “and”; a condition that tells them apart may be missing. Equal entries are not always repeated. Structures can show the parent of a compound that is named as a salt.

Test system: C57BL/6 mouse embryos
Assay: Doppler ultrasonography at E15.5 of mouse embryos exposed to Li or HCy on E6.75, FA rescue
Format: in vivo
Conditions: for Valve Regurgitation (percent of embryos): hydrochloride
Text: To determine whether the results in the avian system would extend to the mammalian system, the inventors conducted studies in the mouse embryo. All mice were maintained according to protocols approved by the Institutional Animal Care and Use Committee at the University of South Florida. The C57BL/6 mouse strain (Jackson Laboratories, Bar Harbor, Me.) was used throughout the study. E0.5 was defined as the morning when the vaginal sperm plug was detected. Timed pregnant mice were randomly allocated to receive a single dose of 100 μl of 6.25 mg/ml Li chloride, as determined previously (Chen et al., 2008), 100 μl of 75 μM HCy, or 100 μl of 6.25 mg/ml sodium chloride (control group); all treatments were given intraperitoneally (i.p). On E15.5, the utero-placental circulation of the pregnant mice, and the central and peripheral circulations of the embryos were examined non-invasively in utero using Doppler ultrasonography (Gui et al., 1996; Linask and Huhta, 2000). Sixty-eight embryos were exposed to Li, 59 to HCy and 42 to physiological saline.
An HCy concentration of 75 μM, used for maternal exposure, was determined empirically using different doses of HCy (i.e. 150, 75, 50 and 15 μM). The minimal teratogenic dose was determined to be 75 μM. […] The single i.p. injection of HCy at E6.75 produced a high number of valve defects (66%), as well as resorptions (46%). […] Because not all embryos within litters are at exactly the same stage of development, the variability of effects seen with either Li or HCy probably reflects the differences in developmental stage.
As a control diet (i.e. normal mouse chow), mice continued to receive 3.3 mg/kg of FA as the baseline to maintain the health of the female mice. […] The animal chow supplemented with 10.5 mg/kg of FA was prepared for us by Harlan Laboratories. As recommended by Harlan, the calculations for the FA level in the special diet are based on the metabolic body weight of mice. Because of the obvious large difference in body weight between humans and mice, and because of the large difference in metabolic rate, Harlan uses the metabolic weight as a method of scaling these differences between species; for mice this was calculated to be BW0.75 (i.e. metabolic weight equals body weight to the 0.75 power). Each mouse consumes approximately 4 g of chow per day; therefore, to obtain the desired dose of 10.5 mg/kg, the inventors added 7.2 mg/kg of FA to the normal 3.3 mg/kg that is present in commercial chow. […]
Doppler ultrasonographic examinations were carried out using the Philips Sonos 5500 (Andover, Mass.) with a 12 MHz transducer and, more recently, with a Vevo 770 (VisualSonics) system. Both instruments provided similar echo patterns. On E15.5, the pregnant mice were anesthetized using a Surgivet Tech 4 anesthesia system (Waukesha, Wis.) with inhalation anesthesia, consisting of 3% isoflurane, administered through a nose cone; the mice were then maintained on 1% isoflurane with 21% oxygen. The mother was placed supine on a heating pad with electrode footpads. The heart rate and temperature of the pregnant mice were monitored using a THM100 (Indus Instruments, Houston, Tex.) during scanning. The body temperature was maintained at 37° C.
Maternal uterine artery blood flow velocity waveforms were obtained and the pulsatility index was calculated. The embryos were visualized and their position mapped in each uterine horn. Blood flow in the heart and blood vessels was detected in each embryo using color Doppler, and blood flow velocity waveforms were obtained using pulsed wave Doppler. Once the embryonic heart was identified by color Doppler, the sample volume of the pulsed Doppler was placed over the entire heart to obtain blood velocities. The gate length was adjusted to completely insonate the beating embryonic heart. The high-pass filter was at its lowest setting of 50 Hz. […]

[1] = echo at E15.5 after exposure on E6.75
[2] = echo at E15.5 after single exposure on E6.75
[3] = median, E15.5 after exposure at E6.75

## Nc1nc2ncc(CNc3ccc(C(=O)N[C@@H](CCC(=O)O)C(=O)O)cc3)nc2c(=O)[nH]1 [FA, folic acid]
3.3 mg/kg of FA in normal mouse chow
  rescue of cardiac defects by baseline FA supplementation: does not rescue cardiac defects
FA i.p. on E6.75
  normalization of exposure effects by FA provided on E6.75: normalized the effects of HCy, but not Li

## N[C@H]1CCSC1=O [HCy, L-homocysteine thiolactone hydrochloride]
E15.5
  outflow peak velocity, maximum mean value: 84.0
  outflow peak velocity, maximum value: 84.00 cm/s
  outflow peak velocity, minimum mean value: 18.5
  outflow peak velocity, minimum value: 18.53 cm/s
[1]
  AV valve regurgitation, percent of embryos: 10%
  SL valve regurgitation, percent of embryos: 53%
  both SL and AV valve regurgitation, percent of embryos: 3%
[2]
  Valve Regurgitation (embryos affected/total): 39/59
  Valve Regurgitation (percent of embryos): 66% and 66.1%
Echo at E15.5 after single exposure on E6.75, listed as HCys
  Valve Regurgitation (percent of embryos): 66.1%
Maternal exposure, mouse, 150, 75, 50 and 15 μM tested
  minimal teratogenic dose: 75 µM
[3]
  Embryonic A vel: 40.14 cm/s
  Embryonic Descending Aorta PI: 1.99
  Embryonic Ductus Veno sus PI: 0.97
  Embryonic E vel: 12.25 cm/s
  Embryonic E/A ratio: 0.30
  Embryonic ET %: 42.51%
  Embryonic Heart Rate: 181 beats/min
  Embryonic ICT %: 6.56%
  Embryonic IRT %: 11.93%
  Embryonic MPI: 0.44
  Embryonic OF peak velocity: 39.92 cm/s
  Embryonic Umbilical Artery PI: 1.55
  Maternal Heart Rate: #458 beats/min
  Maternal Uterine Artery PI: 2.82
mouse, in vivo, ip
  valve defects after i.p. injection on E7.75: did not cause any valve defects
